Assay results from the supplement of paper PMC10307832.

Experiments:
Experiment in all cases: relative viability (nuclei count vs DMSO), 5 days (fraction); higher = more cells survive
[1] = compound: CC[C@H](Nc1ncnc2[nH]cnc12)c1nc2cccc(F)c2c(=O)n1-c1ccccc1 [Idelalisib] + CS(=O)(=O)CCNCc1ccc(-c2ccc3ncnc(Nc4ccc(OCc5cccc(F)c5)c(Cl)c4)c3c2)o1 [Lapatinib] (partner 2 µM)
How it was run: (§1)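 Lung cancer cell lines were pin-tool dosed in 1536-well plates on the day after seeding, with either a lone drug or a fixed anchor-drug dose plus five library-drug doses (not always all listed) in √10 steps. Nuclei were counted on 4× images after 5 days. Relative viability is the ratio of treated-well to vehicle-well nuclei counts, with each value a median of duplicate plates.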

[2] = compound: Nc1nc2[nH]cc(CCc3ccc(C(=O)N[C@@H](CCC(=O)O)C(=O)O)cc3)c2c(=O)[nH]1 [Pemetrexed] + CC(C)C[C@H](NC(=O)[C@H](Cc1ccccc1)NC(=O)c1cnccn1)B(O)O [Bortezomib] (partner 0.002 µM)
How it was run: as §1

[3] = compound: Nc1nc2[nH]cc(CCc3ccc(C(=O)N[C@@H](CCC(=O)O)C(=O)O)cc3)c2c(=O)[nH]1 [Pemetrexed] + CS(=O)(=O)N1CCN(Cc2cc3nc(-c4cccc5[nH]ncc45)nc(N4CCOCC4)c3s2)CC1 [Pictilisib] (partner 1 µM)
How it was run: as §1

[4] = compound: Nc1nc2[nH]cc(CCc3ccc(C(=O)N[C@@H](CCC(=O)O)C(=O)O)cc3)c2c(=O)[nH]1 [Pemetrexed] + N=C(N)NC(=N)NCCc1ccccc1 [Phenformin] (partner 250 µM)
How it was run: as §1

Row | Cell Line | relative viability ([1]; first compound 0.04 µM) | relative viability ([1]; first compound 0.1265 µM) | relative viability ([1]; first compound 1.265 µM) | relative viability ([1]; first compound 4 µM) | relative viability ([2]; first compound 0.002 µM) | relative viability ([2]; first compound 0.006325 µM) | relative viability ([2]; first compound 0.02 µM) | relative viability ([2]; first compound 0.06325 µM) | relative viability ([2]; first compound 0.2 µM) | relative viability ([3]; first compound 0.002 µM) | relative viability ([3]; first compound 0.006325 µM) | relative viability ([3]; first compound 0.02 µM) | relative viability ([3]; first compound 0.06325 µM) | relative viability ([3]; first compound 0.2 µM) | relative viability ([4]; first compound 0.002 µM) | relative viability ([4]; first compound 0.006325 µM) | relative viability ([4]; first compound 0.02 µM) | relative viability ([4]; first compound 0.06325 µM) | relative viability ([4]; first compound 0.2 µM) | relative viability ([1]; first compound 0.4 µM)
1 | LCLC-97TM1 | 0.913 | 1.28 | 1.08 | 0.602 | 0.523 | 1.08 | 0.679 | 0.32 | 0.131 | 0.163 | 0.159 | 0.173 | 0.133 | 0.115 | 0.432 | 0.392 | 0.466 | 0.44 | 0.396 | 
2 | LOU-NH91 | 0.82 | 0.737 | 0.725 | 0.75 | 0.515 | 0.558 | 0.52 | 0.467 | 0.472 | 0.511 | 0.488 | 0.551 | 0.453 | 0.392 | 0.691 | 0.733 | 0.739 | 0.572 | 0.404 | 0.67
3 | LU99A | 0.923 | 0.912 | 1.14 | 1.04 | 1.05 | 1.09 | 1.17 | 0.952 | 0.948 | 0.329 | 0.295 | 0.332 | 0.334 | 0.256 | 0.784 | 0.93 | 0.848 | 0.779 | 0.786 | 0.862
4 | LXF-289 | 0.945 | 0.901 | 0.96 | 0.943 | 0.987 | 0.993 | 1.08 | 0.976 | 0.943 | 0.756 | 0.759 | 0.844 | 0.827 | 0.701 | 0.497 | 0.504 | 0.525 | 0.52 | 0.479 | 0.906
5 | NCI-H23 | 1.04 | 1.06 | 1.08 | 0.893 | 0.865 | 0.924 | 1.02 | 1.06 | 0.725 | 0.395 | 0.416 | 0.538 | 0.516 | 0.408 | 0.747 | 0.758 | 0.809 | 0.804 | 0.828 | 0.872
6 | NCI-H322M | 0.612 | 0.62 | 0.53 | 0.502 | 1.32 | 1.06 | 1.22 | 1.29 | 1.19 | 0.29 | 0.449 | 0.553 | 0.49 | 0.567 | 0.861 | 0.747 | 0.799 | 0.741 | 0.613 | 0.521
7 | NCI-H460 | 1.1 | 1.2 | 1.01 | 1.02 | 1.06 | 1 | 1.16 | 0.177 | 0.0656 | 0.233 | 0.396 | 0.383 | 0.313 | 0.121 | 0.432 | 0.452 | 0.56 | 0.247 | 0.0552 | 0.932
8 | NCI-H520 | 0.776 | 0.999 | 0.923 | 0.684 | 0.29 | 0.64 | 0.542 | 0.526 | 0.395 | 0.247 | 0.254 | 0.349 | 0.322 | 0.275 | 0.567 | 0.756 | 0.756 | 0.65 | 0.501 | 0.717
9 | NCI-H596 | 1.04 | 1.13 | 1.16 | 0.934 | 1.22 | 0.869 | 1.14 | 0.851 | 0.71 | 0.399 | 0.348 | 0.436 | 0.348 | 0.344 | 0.766 | 0.702 | 0.775 | 0.751 | 0.565 | 0.895
10 | NCI-H647 | 1.13 | 1.27 | 0.95 | 0.546 |  | 1.07 | 1.35 | 0.703 | 0.295 | 0.283 | 0.449 | 0.355 | 0.382 | 0.202 | 0.457 | 0.445 | 0.598 | 0.482 | 0.236 | 0.834
11 | NCI-H650 | 1.17 | 1.07 | 0.924 | 0.877 | 0.67 | 0.828 | 0.748 | 0.853 | 0.866 | 0.831 | 0.756 | 0.861 | 0.786 | 0.851 | 0.406 | 0.468 | 0.457 | 0.428 | 0.469 | 0.944
12 | NCI-H661 | 0.44 | 0.433 | 0.367 | 0.391 | 0.945 | 0.88 | 0.891 | 0.727 | 0.648 | 0.487 | 0.402 | 0.438 |  | 0.424 | 0.288 | 0.28 | 0.286 | 0.276 | 0.273 | 0.39
13 | NCI-H727 | 0.814 | 1.09 | 1.21 | 0.719 | 0.807 | 0.892 | 0.74 | 0.897 | 0.742 | 0.398 | 0.399 | 0.415 | 0.378 | 0.369 |  | 0.484 | 0.474 | 0.633 | 0.525 | 0.751
14 | NCI-H838 | 0.994 | 1.12 | 0.938 | 0.767 | 0.895 | 0.708 | 1.07 | 0.63 | 0.208 | 0.443 | 0.392 | 0.532 | 0.267 | 0.248 | 0.616 | 0.546 | 0.792 | 0.379 | 0.155 | 0.707
15 | NCI-H1355 | 1.06 | 1.1 | 0.972 | 0.888 | 0.952 | 1.33 | 1.21 | 1.21 | 1.15 | 0.294 | 0.383 | 0.377 | 0.481 | 0.428 | 0.432 | 0.468 | 0.45 | 0.503 | 0.438 | 0.751
16 | NCI-H1437 | 0.764 | 0.909 | 0.929 | 0.672 | 0.31 | 0.478 | 0.514 | 0.313 | 0.26 | 0.297 | 0.422 | 0.389 | 0.267 | 0.193 |  | 0.348 | 0.281 | 0.196 | 0.163 | 0.734
